Experimental data from ChEMBL document CHEMBL5029167, “Development of Asialoglycoprotein-Mediated Hepatocyte-Targeting Antitumor Prodrugs Triggered by Glutathione” (J Med Chem, 2021).
Calls of active or inactive are those of the source. No cut-off for these calls is given here.

Legend:
[1] = Drug uptake in human A549 cells at 10 uM after 15 mins by confocal scanning microscopic analysis; assay type: ADME, cell-based; conditions: a549, 0.25 h
[2] = Drug uptake in human HeLa cells at 10 uM after 15 mins by confocal scanning microscopic analysis; assay type: ADME, cell-based; conditions: 0.25 h
[3] = Drug uptake in human SGC-7901 cells at 10 uM after 15 mins by confocal scanning microscopic analysis; assay type: ADME, cell-based; conditions: sgc-7901, 0.25 h
[4] = Drug uptake in human HepG2 cells at 10 uM after 15 mins by confocal scanning microscopic analysis; assay type: ADME, cell-based; conditions: hepg2, 0.25 h
[5] = Prodrug release at pH 6.5 assessed as stability after 48 hrs in absence of GSH by LC-MS analysis; assay type: ADME; conditions: pH 6.5, 48 h
[6] = Prodrug release at pH 7.4 assessed as stability after 48 hrs in absence of GSH by LC-MS analysis; assay type: ADME; conditions: pH 7.4, 48 h
[7] = Toxicity in Kunming mouse implanted with mouse H22 cells assessed as change in body weight at 10 mg/kg after 7 days; assay type: organism-based; conditions: in vivo, 168 h, time 7 day
[8] = Toxicity in Kunming mouse implanted with mouse H22 cells assessed as change in organ weight at 10 mg/kg after 7 days; assay type: organism-based; conditions: in vivo, 168 h, time 7 day
[9] = Toxicity in Kunming mouse assessed as change in organ weight at 50 mg/kg; assay type: organism-based; conditions: in vivo
[10] = Toxicity in Kunming mouse assessed as change in body weight at 50 mg/kg; assay type: organism-based; conditions: in vivo
[11] = Prodrug release at pH 6.5 assessed as stability after 120 mins in presence of GSH by LC-MS analysis; assay type: ADME; conditions: pH 6.5, 2 h
[12] = Drug uptake in human HepG2 cells pretreated with galactose for 30 mins followed by compound addition and measured after 15 mins by confocal scanning microscopic analysis; assay type: ADME, cell-based; conditions: hepg2, 0.75 h, time 45 min
[13] = Drug distribution in Kunming mouse liver at 10 mg/kg, iv measured after 3 hrs by confocal scanning microscopic analysis; assay type: ADME, organism-based; conditions: in vivo
H22 [14] = test: Antitumor activity against mouse H22 cells implanted in Kunming mouse assessed as tumor growth inhibition at 10 mg/kg measured on day 7; assay type: functional; design: scale not given: the % may be the effect or the level left; conditions: time 7 day
H22 [15] = test: Antitumor activity against mouse H22 cells implanted in Kunming mouse assessed as tumor growth inhibition at 10 mg/kg measured on day 7 by H and E staining based histopathological analysis; assay type: functional, organism-based; conditions: time 7.0 day
[16] = Prodrug release assessed as stability after 24 hrs in presence of NADH by LC-MS analysis; assay type: ADME
HepG2 [17] = test: Cytotoxicity against human HepG2 cells at 10 to 80 uM after 24 hrs; assay type: cell-based; conditions: hepg2, 24 h, dose 10-80 µM
HepG2 [18] = test: Inhibition of colony formation in human HepG2 cells after 7 days by crystal violet staining based inverted microscopic analysis; assay type: functional, cell-based; conditions: time 7.0 day
HepG2 [19] = test: Induction of apoptosis in human HepG2 cells assessed as viable cells at 6 uM measured after 24 hrs by annexinV-FITC/propidium iodide double staining based flow cytometric analysis (reference value: 93.6 %); assay type: functional; conditions: read-out: Activity
HepG2 [20] = test: Induction of apoptosis in human HepG2 cells assessed as early apoptotic cells at 6 uM measured after 24 hrs by annexinV-FITC/propidium iodide double staining based flow cytometric analysis (reference value: 6.3 %); assay type: functional
HepG2 [21] = test: Induction of apoptosis in human HepG2 cells assessed as late apoptotic cells at 6 uM measured after 24 hrs by annexinV-FITC/propidium iodide double staining based flow cytometric analysis (reference value: 0.1 %); assay type: functional
HepG2 [22] = test: Induction of apoptosis in human HepG2 cells assessed as viable cells at 9 uM measured after 24 hrs by annexinV-FITC/propidium iodide double staining based flow cytometric analysis (reference value: 93.6 %); assay type: functional; conditions: read-out: Activity
HepG2 [23] = test: Induction of apoptosis in human HepG2 cells assessed as early apoptotic cells at 9 uM measured after 24 hrs by annexinV-FITC/propidium iodide double staining based flow cytometric analysis (reference value: 6.3 %); assay type: functional
HepG2 [24] = test: Induction of apoptosis in human HepG2 cells assessed as late apoptotic cells at 9 uM measured after 24 hrs by annexinV-FITC/propidium iodide double staining based flow cytometric analysis (reference value: 0.1 %); assay type: functional
HepG2 [25] = test: Induction of apoptosis in human HepG2 cells assessed as viable cells at 12 uM measured after 24 hrs by annexinV-FITC/propidium iodide double staining based flow cytometric analysis (reference value: 93.6 %); assay type: functional; conditions: read-out: Activity
HepG2 [26] = test: Induction of apoptosis in human HepG2 cells assessed as early apoptotic cells at 12 uM measured after 24 hrs by annexinV-FITC/propidium iodide double staining based flow cytometric analysis (reference value: 6.3 %); assay type: functional
HepG2 [27] = test: Induction of apoptosis in human HepG2 cells assessed as late apoptotic cells at 12 uM measured after 24 hrs by annexinV-FITC/propidium iodide double staining based flow cytometric analysis (reference value: 0.1 %); assay type: functional
HepG2 [28] = test: Cell cycle arrest in human HepG2 cells assessed as accumulation at G0/G1 phase at 2 uM measured after 24 hrs by propidium iodide staining based flow cytometric analysis (reference value: 55.27%); assay type: functional
HepG2 [29] = test: Cell cycle arrest in human HepG2 cells assessed as accumulation at S phase at 2 uM measured after 24 hrs by propidium iodide staining based flow cytometric analysis (reference value: 37.10%); assay type: functional
HepG2 [30] = test: Cell cycle arrest in human HepG2 cells assessed as accumulation at G2/M phase at 2 uM measured after 24 hrs by propidium iodide staining based flow cytometric analysis (reference value: 7.63%); assay type: functional
HepG2 [31] = test: Cell cycle arrest in human HepG2 cells assessed as accumulation at G0/G1 phase at 4 uM measured after 24 hrs by propidium iodide staining based flow cytometric analysis (reference value: 55.27%); assay type: functional
HepG2 [32] = test: Cell cycle arrest in human HepG2 cells assessed as accumulation at S phase at 4 uM measured after 24 hrs by propidium iodide staining based flow cytometric analysis (reference value: 37.10%); assay type: functional
HepG2 [33] = test: Cell cycle arrest in human HepG2 cells assessed as accumulation at G2/M phase at 4 uM measured after 24 hrs by propidium iodide staining based flow cytometric analysis (reference value: 7.63%); assay type: functional
HepG2 [34] = test: Cell cycle arrest in human HepG2 cells assessed as accumulation at G0/G1 phase at 8 uM measured after 24 hrs by propidium iodide staining based flow cytometric analysis (reference value: 55.27%); assay type: functional
HepG2 [35] = test: Cell cycle arrest in human HepG2 cells assessed as accumulation at S phase at 8 uM measured after 24 hrs by propidium iodide staining based flow cytometric analysis (reference value: 37.10%); assay type: functional
HepG2 [36] = test: Cell cycle arrest in human HepG2 cells assessed as accumulation at G2/M phase at 8 uM measured after 24 hrs by propidium iodide staining based flow cytometric analysis (reference value: 7.63%); assay type: functional
HepG2 [37] = test: Cytotoxicity against human HepG2 cells at 2 to 10 uM after 48 hrs by MTT assay; assay type: functional, cell-based; conditions: HepG2, 48 h
[38] = Drug distribution in Kunming mouse heart at 3.5 mg/kg, iv measured after 3 hrs by confocal scanning microscopic analysis; assay type: ADME, organism-based; conditions: in vivo
[39] = Drug distribution in Kunming mouse lung at 3.5 mg/kg, iv measured after 3 hrs by confocal scanning microscopic analysis; assay type: ADME, organism-based; conditions: in vivo
[40] = Drug distribution in Kunming mouse spleen at 3.5 mg/kg, iv measured after 3 hrs by confocal scanning microscopic analysis; assay type: ADME, organism-based; conditions: in vivo
[41] = Drug distribution in Kunming mouse kidney at 3.5 mg/kg, iv measured after 3 hrs by confocal scanning microscopic analysis; assay type: ADME, organism-based; conditions: in vivo
[42] = Drug distribution in Kunming mouse liver at 3.5 mg/kg, iv measured after 3 hrs by confocal scanning microscopic analysis; assay type: ADME, organism-based; conditions: in vivo
HepG2 [43] = test: Inhibition of cell migration in human HepG2 cells after 24 hrs by crystal violet staining based inverted microscopic analysis; assay type: functional
HepG2 [44] = test: Induction of morphological changes in human HepG2 cells assessed as chromatin condensation incubated for 24 hrs by Hoechst 33342 staining based analysis; assay type: functional, cell-based
HepG2 [45] = test: Induction of morphological changes in human HepG2 cells assessed as chromatin fragmentation incubated for 24 hrs by Hoechst 33342 staining based analysis; assay type: functional, cell-based
HepG2 [46] = test: Induction of apoptosis in human HepG2 cells assessed as necrotic cells at 6 uM measured after 24 hrs by annexinV-FITC/propidium iodide double staining based flow cytometric analysis (reference value: 0.0 %); assay type: functional
HepG2 [47] = test: Induction of apoptosis in human HepG2 cells assessed as necrotic cells at 9 uM measured after 24 hrs by annexinV-FITC/propidium iodide double staining based flow cytometric analysis (reference value: 0.0 %); assay type: functional
HepG2 [48] = test: Induction of apoptosis in human HepG2 cells assessed as necrotic cells at 12 uM measured after 24 hrs by annexinV-FITC/propidium iodide double staining based flow cytometric analysis (reference value: 0.0 %); assay type: functional
HepG2 [49] = test: Induction of apoptosis in human HepG2 cells assessed as upregulation of caspase 3 protein expression at 2 to 8 uM after 24 hrs; assay type: functional, cell-based; conditions: dose 2-8 µM
H22 [50] = test: Antitumor activity against mouse H22 cells implanted in Kunming mouse assessed as tumor growth inhibition at 3.5 mg/kg measured on day 7; assay type: functional; design: scale not given: the % may be the effect or the level left; conditions: time 7 day
[51] = Toxicity in Kunming mouse implanted with mouse H22 cells assessed as change in body weight at 3.5 mg/kg after 7 days; assay type: organism-based; conditions: in vivo, 168 h, time 7 day
[52] = Toxicity in Kunming mouse implanted with mouse H22 cells assessed as change in organ weight at 3.5 mg/kg after 7 days; assay type: organism-based; conditions: in vivo, 168 h, time 7 day
H22 [53] = test: Antitumor activity against mouse H22 cells implanted in Kunming mouse assessed as tumor growth inhibition at 0.8 mg/kg measured on day 7; assay type: functional; design: scale not given: the % may be the effect or the level left; conditions: time 7 day
[54] = Toxicity in Kunming mouse implanted with mouse H22 cells assessed as change in body weight at 0.8 mg/kg after 7 days; assay type: organism-based; conditions: in vivo, 168 h, time 7 day
[55] = Toxicity in Kunming mouse implanted with mouse H22 cells assessed as change in organ weight at 0.8 mg/kg after 7 days; assay type: organism-based; conditions: in vivo, 168 h, time 7 day

In the case of C=C[C@]1(C)CC[C@@H](C(=C)Cn2cc(CN3C(=O)c4cccc5c(N6CCN(C(=O)OCCSSCCOCC(=O)NC(COCc7cn([C@@H]8O[C@H](CO)[C@H](O)[C@H](O)[C@H]8O)nn7)(COCc7cn([C@@H]8O[C@H](CO)[C@H](O)[C@H](O)[C@H]8O)nn7)COCc7cn([C@@H]8O[C@H](CO)[C@H](O)[C@H](O)[C@H]8O)nn7)CC6)ccc(c45)C3=O)nn2)C[C@H]1C(=C)C, the Drug uptake [1] is reported as “Active”, the Drug uptake [2] is reported as “Active” and the Drug uptake [3] is reported as “Active”. The Drug uptake [4] was “Active”, the Stability [5] was “Stable” and the Stability [6] was “Stable”. For the same compound, the Activity [7] was “Non-Toxic”, the Activity [8] was “Non-Toxic” and the Activity [9] was “Non-Toxic”. The Activity [10] was “Non-Toxic”, the Stability [11] was “Unstable” and the Drug uptake [12] was “Not Active”. For the same compound, the Drug uptake [13] was “Active”, the Activity (H22 [14]) was 51.22% and the Activity (H22 [15]) was “Active”. The Stability [16] was 98.9% and the Activity (HepG2 [17]) was “Non-Toxic”.
With C=C[C@]1(C)CC[C@@H](C(=C)Cn2cc(CN3C(=O)c4cccc5c(N6CCNCC6)ccc(c45)C3=O)nn2)C[C@H]1C(=C)C the inhibition (HepG2 [18]) was “Dose-Dependent Effect”, the viability at 6 µM (HepG2 [19]) was 51.5% and the Activity (HepG2 [20]) was 46.5%. The Activity (HepG2 [21]) was 1.9%, the viability at 9 µM (HepG2 [22]) was 9.7% and the Activity (HepG2 [23]) was 89.4%. For the same compound, the Activity (HepG2 [24]) was 0.9%, the viability at 12 µM (HepG2 [25]) was 4.7% and the Activity (HepG2 [26]) was 94.9%. For the same compound, the Activity (HepG2 [27]) was 0.3%, the Activity (HepG2 [28]) was 63.46% and the Activity (HepG2 [29]) was 29.93%. It also gave an Activity (HepG2 [30]) of 6.61%, an Activity (HepG2 [31]) of 64.24% and an Activity (HepG2 [32]) of 30.47%. It also gave an Activity (HepG2 [33]) of 5.29%, an Activity (HepG2 [34]) of 71.44% and an Activity (HepG2 [35]) of 21.81%. For the same compound, the Activity (HepG2 [36]) was 67.4%, the IC50 (HepG2 [37]) was 6.11 µM and the Drug uptake [1] was “Not Active”. The Drug uptake [2] was “Not Active”, the Drug uptake [3] was “Not Active” and the Drug uptake [4] was “Not Active”. For the same compound, the Drug uptake [38] was “Not Active”, the Drug uptake [39] was “Not Active” and the Drug uptake [40] was “Not Active”. The Drug uptake [41] was “Not Active”, the Drug uptake [42] was “Not Active” and the inhibition (HepG2 [43]) was “Dose-Dependent Effect”. For the same compound, the Activity (HepG2 [44]) was “Active”, the Activity (HepG2 [45]) was “Active” and the Activity (HepG2 [46]) was 0%. The Activity (HepG2 [47]) was 0%, the Activity (HepG2 [48]) was 0% and the Activity (HepG2 [49]) was “Active”. The Activity (H22 [50]) was 33.65%, the Activity [51] was “Non-Toxic” and the Activity [52] was “Non-Toxic”.
In the case of O=c1[nH]cc(F)c(=O)[nH]1 [FLUOROURACIL], the Activity (H22 [53]) is reported as 26.41%, the Activity [54] is reported as “Non-Toxic” and the Activity [55] is reported as “Non-Toxic”.
